For assay [1], the target named is T1, human fibrillarin (hFBL) (Homo sapiens, UniProt P22087).
T1 construct: gene FBL; methyltransferase domain (residues 83–321)
T1 sequence (P22087 83-321): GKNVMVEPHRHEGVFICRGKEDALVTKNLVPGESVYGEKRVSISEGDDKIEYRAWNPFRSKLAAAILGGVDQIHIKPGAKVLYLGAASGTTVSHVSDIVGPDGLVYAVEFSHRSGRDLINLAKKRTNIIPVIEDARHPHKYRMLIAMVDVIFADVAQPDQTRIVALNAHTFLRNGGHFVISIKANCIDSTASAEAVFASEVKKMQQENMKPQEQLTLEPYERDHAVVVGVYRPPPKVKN
Kind of assay: biochemical. To be noted: SPR. Also noted: SPR binding affinity of compounds to human fibrillarin methyltransferase domain. The text has this: In addition, electron density for 1a was not observed beyond the amide linker, which appeared to be turning away from the catalytic site and pointing towards the bulk solvent. […] Indeed, the binding affinity of 1a turned out to be similar to that of 1 (Supplemental Table S3). […] Additionally, the extended piperidine ring in 2a was engaged in multiple hydrophobic interactions with residues G167, D236, and V237 with a stable chair conformation.

The target in assay [2] is T1, human fibrillarin (hFBL). The assay is described as follows: crystal structure (soak); STD NMR competition with SAM; SPR. In kind it is binding.
Assay [3] has as its target T1, human fibrillarin (hFBL). Kind of assay: STD NMR competition with SAM. It is filed as binding.
For assay [4], the target named is T1, human fibrillarin (hFBL). The assay is described as follows: ITC; also SPR (Kd […]), STD NMR and crystal structure. It is filed as binding. (In general: ITC needs no label: the signal is the heat of the interaction.)
For assay [5], the target named is T1, human fibrillarin (hFBL). Kind of assay: crystal structure (soak; no density beyond the amide linker); STD NMR competition with SAM; SPR. In kind it is binding.

The Kd is a measure of binding affinity in units of concentration. A higher Kd goes with weaker binding. For the molecule `FC(F)(F)c1cc(NC2CCNCC2)ncn1` [2a], binding in assay [1] was characterised by a dissociation constant (Kd) of 43.8 ± 2.2 µM. Further, the “crystal structure (soak); STD NMR competition with SAM; SPR” value in assay [2] was “complex structures were obtained for 1a (PDB code: 7SEC) and 2a (PDB code: 7SED)”. In assay [1], `FC(F)(F)c1cc(NC2CCOCC2)ncn1` [2b] gave an equilibrium dissociation constant (Kd) of 250 ± 20 µM. The “STD NMR competition with SAM” value in assay [3] was “both 2a and 2b were shown to compete with cofactor binding by STD NMR assays”. `N[C@@H](Cc1cccc(NC(=O)Cc2cn3nc(C(F)(F)F)cc3c(=O)[nH]2)c1)C(=O)O` [1c, (S)-2-Amino-3-(3-(2-(4-oxo-2-(trifluoromethyl)-4,5-dihydropyrazolo[1,5-a]pyrazin-6-yl)acetamido)phenyl)propanoic acid] registered a Kd in assay [1] of 2660 ± 40 µM. For the same molecule, in assay [3], the “STD NMR competition with SAM” value was “without the amino acid 1e were also shown to compete with SAM binding to hFBL in solution by STD NMR”. Consider `C[S@@+](CC[C@H](N)C(=O)[O-])C[C@H]1O[C@@H](n2cnc3c(N)ncnc32)[C@H](O)[C@@H]1O` [SAM], for which the results for the equilibrium dissociation constant (Kd) in assay [1] and in assay [4] were 33.7 ± 7.7 µM and 14 ± 0.8 µM, respectively. For `O=C(O)Cc1cn2nc(C(F)(F)F)cc2c(=O)[nH]1` [1e, 2-(4-Oxo-2-(trifluoromethyl)-4,5-dihydropyrazolo[1,5-a]pyrazin-6-yl)acetic acid], the “STD NMR competition with SAM” value in assay [3] was “a synthetic intermediate without the amino acid 1e were also shown to compete with SAM binding to hFBL”. As for `N[C@H](Cc1cccc(NC(=O)Cc2cn3nc(C(F)(F)F)cc3c(=O)[nH]2)c1)C(=O)O` [1a, (R)-2-Amino-3-(3-(2-(4-oxo-2-(trifluoromethyl)-4,5-dihydropyrazolo[1,5-a]pyrazin-6-yl)acetamido)phenyl)propanoic acid], binding in assay [1] was put at a Kd of 510 ± 50 µM. In addition, the “crystal structure (soak; no density beyond the amide linker); STD NMR competitio” value in assay [5] is “complex structures were obtained for 1a (PDB code: 7SEC) and 2a (PDB code: 7SED)”. In the case of `Nc1cc(C(F)(F)F)ncn1` [compound 2, FS-2818], the Kd in assay [1] turned out to be 2700 ± 780 µM.

On to `N[C@@H](CCCNC(=O)Cc1cn2nc(C(F)(F)F)cc2c(=O)[nH]1)C(=O)O` [1d, (S)-2-Amino-5-(2-(4-oxo-2-(trifluoromethyl)-4,5-dihydropyrazolo[1,5-a]pyrazin-6-yl)acetamido)pentanoic acid], for which the dissociation constant Kd in assay [1] stood at 3350 ± 480 µM. Further, the “STD NMR competition with SAM” value in assay [3] is “In addition to 1a, 1c, 1d, and a synthetic intermediate without the amino acid 1e were also shown to compete”.

Turning to `Cc1cn2cc(C(F)(F)F)cc2c(=O)[nH]1` [compound 1, PS-6655], binding in assay [1] was characterised by a dissociation constant (Kd) of 520 ± 40 µM.

(Values after paper PMC8779173, “Discovery of Cofactor Competitive Inhibitors against the Human Methyltransferase Fibrillarin” (Pharmaceuticals, 2021).)
